Test: Inhibition of rabbit skeletal muscle myosin-2 ATPase incubated for 20 mins followed by ATP addition and measured after 20 mins

Oc1c(Br)cc(Br)cc1-c1[nH]c(Br)c(Br)c1Br [pentabromopseudilin]
IC50: 5.1 µM
